Experimental data: paper PMC9317966, “Structure-function analysis of the AMPK activator SC4 and identification of a potent pan AMPK activator” (Biochemical Journal, 2022)
pEC50: −log10 of the molar value.

Legend:
[1] = target: γ1AMPK complexes; experiment: Radiolabel kinase assay, immobilised GST-tagged γ1AMPK (stated across γ1 complexes); type: biochemical, human
Source text: We directly compared in vitro potencies of pan activators by performing radiolabel kinase assays with γ1AMPK complexes. Initially, we used GST-tagged γ1AMPK expressed in HEK293T/17 cells and immobilised on glutathione-Sepharose (Figure 2 and Table 2). […] These assays used AMPK purified from Sf9 insect cells or E. coli that was pre-treated with CaMKK2. […] However, relative to immobilised GST-α2β1γ1 from HEK293T/17 cells, His-tagged and myristoylated α2β1γ1 AMPK (expressed in E. coli, CaMKK2-treated and assayed in solution) was at least 10-fold more sensitive to activation by both MK-8722 and MSG011 (Supplementary Figure S3B), indicating the GST-affinity tag or CaMKK2 treatment may exert some influence on sensitivity to these activators.
Adherent HEK293T/17 cells at ∼50% confluency were triply transfected with full-length AMPK α1 or α2 (NH2-terminal GST fusion, pDEST27 vector), β1 or β2 (COOH-terminal FLAG fusion, pcDNA3.1 vector), and γ1, γ2 or γ3 (NH2-terminal HA fusion, pMT2 vector) in the presence of FuGENE HD transfection reagent (Promega) as per the manufacturers protocol. Cells were harvested 48 hours post-transfection by first gently washing in ice cold phosphate buffered saline (PBS; Sigma–Aldrich), then scraping in ice cold lysis buffer (50 mM TRIS pH 7.5, 150 mM NaCl, 10% (v/v) glycerol, 50 mM NaF, 5 mM sodium pyrophosphate, 1% (v/v) Triton X-100, cOmplete protease inhibitor cocktail). Lysates were clarified by centrifugation (16 000g, 3 min, 4°C), flash frozen in liquid N2 and stored at −80°C until analysis. For radioactive kinase assays, AMPK was immobilised on glutathione Sepharose 4B resin (GE Healthcare) by incubation with lysates for 1.5 h at 4°C. Following centrifugation (1000g, 3 min, 4°C), the resin was washed twice in purification buffer (50 mM HEPES pH 7.4, 150 mM NaCl, 10% (v/v) glycerol, 0.02% (v/v) Tween-20), once in 50 mM HEPES pH 7.4 with 0.02% (v/v) Tween-20, then resuspended to a 50% slurry with 50 mM HEPES pH 7.4 and 10 µl added to the activity assays. For in solution kinase assays, α1β1γ1 AMPK was eluted from glutathione-Sepharose by incubating with purification buffer supplemented with 40 mM reduced glutathione (Sigma–Aldrich).
AMPK activity was determined by phosphorylation of the SAMS peptide (Purar Chemicals, sequence: NH2-HMRSAMSGLHLVKRR-COOH) in a 25 µl reaction volume containing 100 µM SAMS peptide, 5 mM MgCl2, 200 µM ATP, [γ-^32P]-ATP (PerkinElmer) and assay buffer (50 mM HEPES pH 7.4, 1 mM DTT and 0.02% (v/v) Tween-20) and purified AMPK. […] Ultima Gold liquid scintillation fluid (5 ml; PerkinElmer) was added to vials containing dried phosphocellulose papers, and the level of ^32P-transfer to the SAMS peptide was determined using a Tri-Carb 2900TR liquid scintillation counter (PerkinElmer).

[2] = test system: HepG2 cells and C2C12 myotubes; design: method as in PMID 28705990; settings: cited from earlier work

SMILES: O[C@@H]1CO[C@H]2[C@@H]1OC[C@H]2Oc1nc2nc(-c3ccc(-c4ccccc4)cc3)c(Cl)cc2[nH]1 [MK-8722, reference compound]
- EC50 fold higher than previously determined by high-throughput fluorescence-based assays in solution ([1]; compared with refs 17, 18): 100–1000 fold
- pEC50 ([1]; immobilised GST-γ1AMPK, read-out: EC50 values for γ1AMPK activation): 5.25 to 5.92
- α-Thr172 phosphorylation ([2]; above 1 µM): elevated α-Thr172
- AMPK signalling ([2]; below 1 µM, in the absence of increased α-Thr172 phosphorylation): stimulate AMPK signalling
